{"source": "patent US7880002B2", "about": "“Substituted piperazinyl-pyrrolidine compounds useful as chemokine receptor antagonists” (Millennium Pharmaceuticals, Inc., priority 2004, dated 2011)", "data": [{"target": "T1, CCR1 (Homo sapiens, UniProt P32246)", "T1 construct": "a monocytic derived cell line that endogenously expresses CCR1; host or cells: THP-1 cells", "T1 sequence (P32246 1-355)": "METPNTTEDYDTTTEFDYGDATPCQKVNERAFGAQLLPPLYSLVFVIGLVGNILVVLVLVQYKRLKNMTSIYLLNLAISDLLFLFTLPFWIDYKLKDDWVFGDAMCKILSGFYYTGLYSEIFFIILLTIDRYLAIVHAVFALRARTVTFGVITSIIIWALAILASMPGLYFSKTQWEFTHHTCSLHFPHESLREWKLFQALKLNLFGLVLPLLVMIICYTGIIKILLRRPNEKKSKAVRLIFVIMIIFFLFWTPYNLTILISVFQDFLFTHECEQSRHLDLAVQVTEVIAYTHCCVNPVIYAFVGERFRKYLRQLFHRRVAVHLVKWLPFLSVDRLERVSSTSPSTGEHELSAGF", "assay": "CCR1 inhibition (THP-1 FLIPR assay / THP-1 whole cell radioligand binding assay; the patent does not say which gave the values)", "type": "cell-based", "details": "threshold list, less than 100 nm; compounds of Table 1; read-out: inhibitory activity", "description": "The primary screening assay is a FLIPR® (Fluorometric Imaging Plate Reader, available from Molecular Devices Corporation, Sunnyvale, Calif.) assay using THP-1 cells (ATCC, Catalog No. TIB 202), a monocytic derived cell line that endogenously expresses CCR1.\nThe cells were resuspended at 1×10^6 cells/ml in dye loading media (growth media (RPMI+10% FBS (Fetal Bovine serum)+5.5×10^−5M 2-mercaptoethanol)+10 mM HEPES (N-2-hydroxyethylpiperazine-N′-2-ethane-sulfonic acid)+2.5 mM probenecid+fluo-3 (1:250)). The cells were incubated for 1 hour at 37° C. and then washed in FLIPR wash buffer (100 mL 10× HBSS (Hanks Buffered Saline Solution) (w/Ca++/Mg++)+20 mL 1M HEPES+1 g BSA+10 mL 250 mM probenecid+water (to make 1 L)) and plated at 50,000 cells/well in black/clear 384 well plates. The plates were transferred to FLIPR where the ability of different concentrations of compounds to inhibit RANTES induced calcium flux was assessed. Inhibition of the CCR1 response was reflected by a decrease of the fluorescence signal relative to the positive controls (RANTES alone).\nTHP-1 Whole Cell Radioligand Binding Assay\nThe cells were washed with PBS (phosphate buffered saline) and resuspended in binding buffer (10 mM HEPES pH 7.2, 1× HBSS (w/Ca^2+, Mg^2+) 0.5% BSA, 0.02% Na-azide) at 4×10^6 cells/ml (for 200, 000 cells/well). Cells were incubated with 0.1 to 0.2 nM [^125I]-labeled MIP-1α with or without unlabeled competitor (MIP-1α) or various concentrations of compounds for 60 minutes at room temperature. The assay was terminated by vacuum filtration through glass fiber filters (GF/B, Packard) which were presoaked in 0.3% polyethyleneimine. The filters were washed with wash buffer (10 mM HEPES, pH 7.2, 1 mM CaCl2, 5 mM MgCl2 0.5M NaCl), dried and the amount of bound radioactivity was determined by scintillation counting.", "units": {"IC50": "nM"}, "values": [{"smiles": "CNC(=O)Nc1ccc2nc(C(F)(F)F)nc(N3C[C@H](O)[C@@H](N4CCN(C(=O)c5ccc(Cl)cc5)CC4)C3)c2c1", "note": "(stereo in doubt) [Example 196, N-[4-{3-[4-(4-chlorobenzoyl)piperazin-1-yl]-4-hydroxypyrrolidin-1-yl}-2-(trifluoromethyl)quinazolin-6-yl]-N′-methylurea]", "IC50": "< 100"}, {"smiles": "CNC(=O)c1ccc2nc(C(F)(F)F)nc(N3C[C@@H](O)[C@H](N4CCN(C(=O)c5ccc(Cl)cc5)CC4)C3)c2c1", "note": "(stereo in doubt) [Example 198, 4-{3-[4-(4-chlorobenzoyl)piperazin-1-yl]-4-hydroxypyrrolidin-1-yl}-N-methyl-2-(trifluoromethyl)quinazoline-6-carboxamide]", "IC50": "< 100"}, {"smiles": "CC(C)(O)c1ccc2nc(C(F)(F)F)nc(N3C[C@@H](O)[C@H](N4CCN(C(=O)c5ccc(Cl)cc5)CC4)C3)c2c1", "note": "(stereo in doubt) [Example 199, 4-[4-(4-chlorobenzoyl)piperazin-1-yl]-1-[6-(1-hydroxy-1-methylethyl)-2-(trifluoromethyl)quinazolin-4-yl]pyrrolidin-3-ol]", "IC50": "< 100"}, {"smiles": "O=C(c1ccc(Cl)cc1)N1CCN([C@H]2CN(c3nc(C(F)(F)F)nc4cc(Cl)ccc34)C[C@@H]2O)CC1", "note": "(stereo in doubt) [Example 201, 4-[4-(4-chlorobenzoyl)piperazin-1-yl]-1-[7-chloro-2-(trifluoromethyl)quinazolin-4-yl]pyrrolidin-3-ol]", "IC50": "< 100"}, {"smiles": "O=C(c1ccc(Cl)cc1)N1CCN([C@@H]2CN(c3nc(C(F)(F)F)nc4ccc(N5CCNC5=O)cc34)C[C@H]2O)CC1", "note": "(stereo in doubt) [Example 202, 1-[4-{3-[4-(4-chlorobenzoyl)piperazin-1-yl]-4-hydroxypyrrolidin-1-yl}-2-(trifluoromethyl)quinazolin-6-yl]imidazolidin-2-one]", "IC50": "< 100"}, {"smiles": "N#Cc1ccc2nc(C(F)(F)F)nc(N3C[C@@H](O)[C@H](N4CCN(C(=O)c5ccc(Cl)cc5)CC4)C3)c2c1", "note": "(stereo in doubt) [Example 203, 4-{3-[4-(4-chlorobenzoyl)piperazin-1-yl]-4-hydroxypyrrolidin-1-yl}-2-(trifluoromethyl)quinazoline-6-carbonitrile]", "IC50": "< 100"}, {"smiles": "O=C(c1ccc(Cl)cc1)N1CCN([C@@H]2CN(c3nc(C(F)(F)F)nc4ccc(-c5nn[nH]n5)cc34)C[C@H]2O)CC1", "note": "(stereo in doubt) [Example 204, 4-[4-(4-chlorobenzoyl)piperazin-1-yl]-1-[6-(2H-tetrazol-5-yl)-2-(trifluoromethyl)quinazolin-4-yl]pyrrolidin-3-ol]", "IC50": "< 100"}, {"smiles": "O=C(c1ccc(Cl)cc1)N1CCN([C@@H]2CN(c3ccnc4cc(C(F)(F)F)ccc34)C[C@H]2O)CC1", "note": "[Example 12, 4-[4-(4-chlorobenzoyl)piperazin-1-yl]-1-[7-(trifluoromethyl)quinolin-4-yl]pyrrolidin-3-ol]", "IC50": "< 100"}, {"smiles": "O=C(c1ccc(Cl)cc1)N1CCN([C@@H]2CN(c3nccc4ccccc34)C[C@H]2O)CC1", "note": "[Example 21, 4-[4-(4-chlorobenzoyl)piperazin-1-yl]-1-isoquinolin-1-ylpyrrolidin-3-ol]", "IC50": "< 100"}, {"smiles": "O[C@@H]1CN(c2ccnc3cc(Cl)ccc23)C[C@H]1N1CCN(Cc2ccc(Cl)cc2)CC1", "note": "[Example 61, (3R,4R)-4-[4-(4-chlorobenzyl)piperazin-1-yl]-1-(7-chloroquinolin-4-yl)pyrrolidin-3-ol]", "IC50": "< 100"}, {"smiles": "O=C(c1ccc(Cl)cc1)N1CCN([C@H]2CN(c3nccc(C(F)(F)F)n3)C[C@@H]2O)CC1", "note": "[Example 68, (3S,4S)-4-[4-(4-chlorobenzoyl)piperazin-1-yl]-1-[4-(trifluoromethyl)pyrimidin-2-yl]pyrrolidin-3-ol]", "IC50": "< 100"}, {"smiles": "O=C(c1ccc(Cl)cc1)N1CCN([C@H]2CN(c3cccc(C(F)(F)F)n3)C[C@@H]2O)CC1", "note": "[Example 79]", "IC50": "< 100"}, {"smiles": "O=C(c1ccc(Cl)cc1)N1CCN([C@@H]2CN(c3nc(-c4ccccc4)nc4ccccc34)C[C@H]2O)CC1", "note": "[Example 101, 4-[4-(4-chlorobenzoyl)piperazin-1-yl]-1-(2-phenylquinazolin-4-yl)pyrrolidin-3-ol]", "IC50": "< 100"}, {"smiles": "O=C(c1ccc(Cl)cc1)N1CCN([C@H]2CN(c3ncnc4cc(Cl)ccc34)C[C@@H]2O)CC1", "note": "[Example 105, (3S,4S)-4-[4-(4-chlorobenzoyl)piperazin-1-yl]-1-(7-chloroquinazolin-4-yl)pyrrolidin-3-ol]", "IC50": "< 100"}, {"smiles": "O[C@@H]1CN(c2nc(C(F)(F)F)cc(C(F)(F)F)n2)C[C@H]1N1CCN(Cc2ccc(Cl)cc2)CC1", "note": "[Example 110, 1-[4,6-bis(trifluoromethyl)pyrimidin-2-yl]-4-[4-(4-chlorobenzyl)piperazin-1-yl]pyrrolidin3-ol]", "IC50": "< 100"}, {"smiles": "CC(C)(C)c1cc(C(F)(F)F)nc(N2CC(O)C(N3CCN(C(=O)c4ccc(Cl)cc4)CC3)C2)n1", "note": "(centres unmarked) [Example 129, 1-[4-tert-butyl-6-(trifluoromethyl)pyrimidin-2-yl]-4-[4-(4-chlorobenzoyl)piperazin-1-yl]pyrrolidin-3-ol]", "IC50": "< 100"}, {"smiles": "O[C@@H]1CN(c2ncnc3cc(Cl)ccc23)C[C@H]1N1CCN(Cc2ccc(Cl)cc2)CC1", "note": "[Example 141, (3R,4R)-4-[4-(4-chlorobenzyl)piperazin-1-yl]-1-(7-chloroquinazolin-4-yl)pyrrolidin-3-ol]", "IC50": "< 100"}, {"smiles": "Cc1cc(C(F)(F)F)nc(N2C[C@H](O)[C@@H](N3CCN(C(=O)c4ccc(Cl)cc4)CC3)C2)n1", "note": "[Example 150, (3S,4S)-4-[4-(4-chlorobenzoyl)piperazin-1-yl]-1-[4-methyl-6-(trifluoromethyl)pyrimidin-2-yl]pyrrolidin-3-ol]", "IC50": "< 100"}, {"smiles": "Cc1nc(C(F)(F)F)nc(N2C[C@H](O)[C@@H](N3CCN(C(=O)c4ccc(Cl)cc4)CC3)C2)c1C", "note": "[Example 157, (3S,4S)-4-[4-(4-chlorobenzoyl)piperazin-1-yl]-1-[5,6-dimethyl-2-(trifluoromethyl)pyrimidin-4-yl]pyrrolidin-3-ol]", "IC50": "< 100"}, {"smiles": "NC(=O)c1ccc2nc(C(F)(F)F)nc(N3C[C@@H](O)[C@H](N4CCN(C(=O)c5ccc(Cl)cc5)CC4)C3)c2c1", "note": "[Example 189, 4-{(3R,4R)-3-[4-(4-chlorobenzoyl)piperazin-1-yl]-4-hydroxypyrrolidin-1-yl}-2-(trifluoromethyl)quinazoline-6-carboxamide]", "IC50": "< 100"}]}]}
